Laboratory results reported in PubChem BioAssay (NCI).
“And” between values parts separate entries of the source, which are not always exact repeats. Equal entries are not always repeated.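 Following 48 hours of exposure in 96-well plates, responses at five concentrations were used to interpolate endpoints linearly. The concentration for 50% growth inhibition is given as GI50. Definition used: TGI = concentration required for complete inhibition of growth.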

Tests used:
Assay in all cases: growth of human tumour cells (NCI), 48 h
[1] = test system: K-562 leukemia
[2] = test system: NCI-H226 lung
[3] = test system: CAKI-1 renal
[4] = test system: LXFL 529 NSCLC
[5] = test system: RXF 393 renal
[6] = test system: 786-0 renal
[7] = test system: LOX IMVI melanoma
[8] = test system: HT29 colon
[9] = test system: HOP-92 NSCLC
[10] = test system: RPMI-8226 leukemia
[11] = test system: XF 498 CNS
[12] = test system: SNB-78 CNS
[13] = test system: SW-620 colon
[14] = test system: DMS 114 small cell lung
[15] = test system: DLD-1 colon
[16] = test system: SK-MEL-2 melanoma
[17] = test system: U251 CNS
[18] = test system: MOLT-4 leukemia
[19] = test system: HCT-15 colon
[20] = test system: NCI-H522 lung
[21] = test system: OVCAR-8 ovarian
[22] = test system: HL-60(TB) leukemia
[23] = test system: SR leukemia
[24] = test system: SF-268 CNS
[25] = test system: TK-10 renal
[26] = test system: UACC-257 melanoma
[27] = test system: KM20L2 colon
[28] = test system: SN12C renal
[29] = test system: DMS 273 small cell lung
[30] = test system: SK-MEL-28 melanoma
[31] = test system: IGROV1 ovarian
[32] = test system: SNB-75 CNS
[33] = test system: HOP-18 NSCLC
[34] = test system: NCI-H23 lung
[35] = test system: A498 renal
[36] = test system: EKVX NSCLC
[37] = test system: SNB-19 CNS
[38] = test system: OVCAR-5 ovarian
[39] = test system: NCI-H460 lung
[40] = test system: UO-31 renal
[41] = test system: HCC-2998 colon
[42] = test system: SF-539 CNS
[43] = test system: M14 melanoma
[44] = test system: SK-MEL-5 melanoma
[45] = test system: COLO 205 colon
[46] = test system: ACHN renal
[47] = test system: OVCAR-3 ovarian
[48] = test system: HOP-62 NSCLC
[49] = test system: A549 NSCLC
[50] = test system: SF-295 CNS
[51] = test system: M19-MEL melanoma
[52] = test system: OVCAR-4 ovarian
[53] = test system: SK-OV-3 ovarian
[54] = test system: HS 578T breast
[55] = test system: KM12 colon
[56] = test system: MALME-3M melanoma
[57] = test system: HCT-116 colon

Structure (SMILES): CCN(CC)CCCNc1ccc2ncn3c4ccc(O)cc4c(=O)c1c23
- GI50 [1]: 1.3 µM
- TGI [1]: 20.5 µM
- TGI [2]: 3.5 µM
- GI50 [3]: 0.205 µM
- TGI [3]: 2.48 µM and 2.36 µM
- TGI [4]: 18.5 µM
- GI50 [5]: 0.902 µM
- TGI [5]: 6.35 µM and 2.69 µM
- GI50 [6]: 0.802 µM
- TGI [6]: 14.5 µM
- GI50 [7]: 0.95 µM
- TGI [7]: 2.37 µM and 2.56 µM
- GI50 [8]: 2.32 µM
- TGI [8]: 7.78 µM
- GI50 [9]: 1.28 µM
- TGI [9]: 7.57 µM and 12.5 µM
- GI50 [10]: 1.45 µM
- TGI [10]: 21.8 µM
- TGI [11]: 14.2 µM
- TGI [12]: 28.8 µM
- GI50 [13]: 0.832 µM
- TGI [13]: 15.8 µM
- TGI [14]: 23.8 µM
- TGI [15]: 16.1 µM
- TGI [16]: 19 µM
- GI50 [17]: 2.05 µM
- TGI [17]: 17.7 µM
- TGI [18]: 0.255 µM and 0.52 µM
- GI50 [19]: 2.03 µM
- TGI [19]: 15.7 µM
- GI50 [20]: 0.218 µM
- TGI [20]: 4.44 µM and 4.68 µM
- GI50 [21]: 0.669 µM
- TGI [21]: 13.4 µM
- GI50 [22]: 0.17 µM
- TGI [22]: 4.49 µM and 1.62 µM
- GI50 [23]: 0.124 µM
- TGI [23]: 2.86 µM and 1.53 µM
- GI50 [24]: 2.66 µM
- TGI [24]: 17.5 µM
- GI50 [25]: 2.23 µM
- TGI [25]: 21.2 µM
- TGI [26]: 23.8 µM
- TGI [27]: 18.2 µM
- GI50 [28]: 2.78 µM
- TGI [28]: 14.7 µM
- TGI [29]: 14.8 µM
- TGI [30]: 25.2 µM
- GI50 [31]: 0.265 µM
- TGI [31]: 8.58 µM and 18.6 µM
- GI50 [32]: 2.3 µM
- TGI [32]: 8.49 µM and 8.39 µM
- TGI [33]: 34.6 µM
- GI50 [34]: 0.784 µM
- TGI [34]: 14.5 µM
- GI50 [35]: 0.6 µM
- TGI [35]: 17.8 µM
- GI50 [36]: 5.51 µM
- TGI [36]: 19 µM
- GI50 [37]: 0.493 µM
- TGI [37]: 20.2 µM
- GI50 [38]: 4.39 µM
- TGI [38]: 10.7 µM
- GI50 [39]: 0.0627 µM
- TGI [39]: 5.78 µM
- GI50 [40]: 0.295 µM
- TGI [40]: 13.4 µM
- GI50 [41]: 3.59 µM
- TGI [41]: 17.8 µM
- GI50 [42]: 4.51 µM
- TGI [42]: 17.2 µM
- TGI [43]: 16 µM
- TGI [44]: 18.3 µM
- TGI [45]: 19.4 µM
- GI50 [46]: 0.389 µM
- TGI [46]: 3.78 µM
- TGI [47]: 22.2 µM
- GI50 [48]: 1.25 µM
- TGI [48]: 19.2 µM
- GI50 [49]: 0.336 µM
- TGI [49]: 6.94 µM
- GI50 [50]: 1.83 µM
- TGI [50]: 15.9 µM
- TGI [51]: 21.3 µM
- TGI [52]: 11.9 µM
- GI50 [53]: 0.369 µM
- TGI [53]: 17.8 µM
- TGI [54]: 7.28 µM
- GI50 [55]: 2.6 µM
- TGI [55]: 19.5 µM
- GI50 [56]: 4.17 µM
- TGI [56]: 19.1 µM
- GI50 [57]: 0.359 µM
- TGI [57]: 9.75 µM and 14.1 µM
